According to patent US12157741B2, “Macrocyclic inhibitors of DYRK1A” (DANA-FARBER CANCER INSTITUTE, INC., priority 2018, dated 2024):
Where two headings read alike, the source gives them in different places.

Tests used:
Format in all cases: binding
[1] = biological target: various enzymes (Homo sapiens, UniProt P07949, V804M)
Protocol: (§1) Ambit profiling was conducted in accordance with the manufacturer's instructions.

[2] = biological target: various enzymes (Homo sapiens, UniProt Q96BR1); conditions: compound 1 uM
Protocol: as §1

[3] = biological target: various enzymes (Homo sapiens, UniProt Q8WU08); conditions: compound 1 uM
Protocol: as §1

[4] = biological target: various enzymes (Homo sapiens, UniProt Q15418); conditions: compound 1 uM
Protocol: as §1

[5] = biological target: various enzymes (Homo sapiens, UniProt P53355); conditions: compound 1 uM
Protocol: as §1

[6] = biological target: various enzymes (Homo sapiens, UniProt O60331); conditions: compound 1 uM
Protocol: as §1

[7] = biological target: various enzymes (Homo sapiens, UniProt P10721, V559D)
Protocol: as §1

[8] = biological target: various enzymes (Homo sapiens, UniProt P42680); conditions: compound 1 uM
Protocol: as §1

[9] = biological target: various enzymes (Homo sapiens, UniProt P35590); conditions: compound 1 uM
Protocol: as §1

[10] = biological target: various enzymes (Homo sapiens, UniProt Q9UQ88); conditions: compound 1 uM
Protocol: as §1

[11] = biological target: various enzymes (Homo sapiens, UniProt P51813); conditions: compound 1 uM
Protocol: as §1

[12] = biological target: various enzymes (Homo sapiens, UniProt P57059); conditions: compound 1 uM
Protocol: as §1

[13] = biological target: various enzymes (Homo sapiens, UniProt Q59H18); conditions: compound 1 uM
Protocol: as §1

[14] = biological target: various enzymes (Homo sapiens, UniProt O14976); conditions: compound 1 uM
Protocol: as §1

[15] = biological target: various enzymes (Homo sapiens, UniProt Q9Y2I7); conditions: compound 1 uM
Protocol: as §1

[16] = biological target: various enzymes (Homo sapiens, UniProt P53350); conditions: compound 1 uM
Protocol: as §1

[17] = biological target: various enzymes (Plasmodium falciparum, UniProt P62344)
Protocol: as §1

[18] = biological target: various enzymes (Homo sapiens, UniProt Q9H1R3); conditions: compound 1 uM
Protocol: as §1

[19] = biological target: various enzymes (Homo sapiens, UniProt O00329); conditions: compound 1 uM
Protocol: as §1

[20] = biological target: various enzymes (Homo sapiens, UniProt Q8IU85); conditions: compound 1 uM
Protocol: as §1

[21] = biological target: various enzymes (Homo sapiens, UniProt Q9NY57); conditions: compound 1 uM
Protocol: as §1

[22] = biological target: T1, various enzymes (Homo sapiens, UniProt P36888); conditions: compound 1 uM
T1 sequence (P36888 27-993): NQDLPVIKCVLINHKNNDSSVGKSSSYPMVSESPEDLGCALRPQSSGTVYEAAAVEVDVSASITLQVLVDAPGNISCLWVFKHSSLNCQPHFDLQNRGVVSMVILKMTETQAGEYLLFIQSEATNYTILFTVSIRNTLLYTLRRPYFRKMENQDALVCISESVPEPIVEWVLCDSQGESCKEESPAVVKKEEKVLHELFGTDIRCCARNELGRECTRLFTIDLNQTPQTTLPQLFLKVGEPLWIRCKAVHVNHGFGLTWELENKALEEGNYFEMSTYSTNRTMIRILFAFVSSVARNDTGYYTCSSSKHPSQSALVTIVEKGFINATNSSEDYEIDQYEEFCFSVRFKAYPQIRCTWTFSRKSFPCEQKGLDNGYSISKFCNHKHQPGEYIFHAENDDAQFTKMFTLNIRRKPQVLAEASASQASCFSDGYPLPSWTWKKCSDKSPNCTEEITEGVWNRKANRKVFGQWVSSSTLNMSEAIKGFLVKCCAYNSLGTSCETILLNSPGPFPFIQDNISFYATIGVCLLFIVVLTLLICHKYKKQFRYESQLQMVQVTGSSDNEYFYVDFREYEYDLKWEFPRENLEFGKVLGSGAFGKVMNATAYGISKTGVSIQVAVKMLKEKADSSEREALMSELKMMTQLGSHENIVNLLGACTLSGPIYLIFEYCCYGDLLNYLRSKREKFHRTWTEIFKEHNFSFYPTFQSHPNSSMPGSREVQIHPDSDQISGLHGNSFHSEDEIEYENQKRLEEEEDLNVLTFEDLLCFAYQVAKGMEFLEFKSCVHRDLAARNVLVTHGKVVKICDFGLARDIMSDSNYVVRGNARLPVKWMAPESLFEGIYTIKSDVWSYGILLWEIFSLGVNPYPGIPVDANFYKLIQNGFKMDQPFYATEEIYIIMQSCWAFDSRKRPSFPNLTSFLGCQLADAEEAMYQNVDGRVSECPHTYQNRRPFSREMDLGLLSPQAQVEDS
Protocol: as §1

[23] = biological target: various enzymes (Homo sapiens, UniProt Q96PN8); conditions: compound 1 uM
Protocol: as §1

[24] = biological target: various enzymes (Homo sapiens, UniProt Q9HAZ1); conditions: compound 1 uM
Protocol: as §1

[25] = biological target: various enzymes (Homo sapiens, UniProt Q9NYY3); conditions: compound 1 uM
Protocol: as §1

[26] = biological target: various enzymes (Homo sapiens, UniProt P33981); conditions: compound 1 uM
Protocol: as §1

[27] = biological target: various enzymes (Homo sapiens, UniProt Q9HBY8); conditions: compound 1 uM
Protocol: as §1

[28] = biological target: various enzymes (Homo sapiens, UniProt P42679); conditions: compound 1 uM
Protocol: as §1

[29] = biological target: various enzymes (Homo sapiens, UniProt Q9Y3S1); conditions: compound 1 uM
Protocol: as §1

[30] = biological target: various enzymes (Homo sapiens, UniProt P37023); conditions: compound 1 uM
Protocol: as §1

[31] = biological target: various enzymes (Homo sapiens, UniProt Q8IVW4); conditions: compound 1 uM
Protocol: as §1

various enzymes (Homo sapiens, UniProt Q15418), sequence (Q15418 whole entry): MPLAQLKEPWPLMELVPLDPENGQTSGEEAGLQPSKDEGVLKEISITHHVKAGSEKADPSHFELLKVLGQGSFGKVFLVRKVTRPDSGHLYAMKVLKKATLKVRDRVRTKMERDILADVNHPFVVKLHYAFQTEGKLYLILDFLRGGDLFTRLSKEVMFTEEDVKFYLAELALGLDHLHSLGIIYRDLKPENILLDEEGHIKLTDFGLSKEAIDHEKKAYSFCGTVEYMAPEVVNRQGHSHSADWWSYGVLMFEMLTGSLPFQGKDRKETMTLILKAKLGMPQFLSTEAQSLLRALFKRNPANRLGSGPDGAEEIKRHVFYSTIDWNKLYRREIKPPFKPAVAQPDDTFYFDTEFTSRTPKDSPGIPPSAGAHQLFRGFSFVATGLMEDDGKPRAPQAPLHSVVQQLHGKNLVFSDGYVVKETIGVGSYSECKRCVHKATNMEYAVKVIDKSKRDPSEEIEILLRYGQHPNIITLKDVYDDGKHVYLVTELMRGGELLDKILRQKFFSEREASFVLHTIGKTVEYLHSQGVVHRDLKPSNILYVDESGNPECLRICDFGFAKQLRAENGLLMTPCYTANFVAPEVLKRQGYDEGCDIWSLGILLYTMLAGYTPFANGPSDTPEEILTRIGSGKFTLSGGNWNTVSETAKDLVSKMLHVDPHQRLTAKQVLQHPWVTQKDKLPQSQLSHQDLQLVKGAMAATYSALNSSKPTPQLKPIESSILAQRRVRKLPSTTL
various enzymes (Homo sapiens, UniProt Q9HAZ1), sequence (Q9HAZ1 whole entry): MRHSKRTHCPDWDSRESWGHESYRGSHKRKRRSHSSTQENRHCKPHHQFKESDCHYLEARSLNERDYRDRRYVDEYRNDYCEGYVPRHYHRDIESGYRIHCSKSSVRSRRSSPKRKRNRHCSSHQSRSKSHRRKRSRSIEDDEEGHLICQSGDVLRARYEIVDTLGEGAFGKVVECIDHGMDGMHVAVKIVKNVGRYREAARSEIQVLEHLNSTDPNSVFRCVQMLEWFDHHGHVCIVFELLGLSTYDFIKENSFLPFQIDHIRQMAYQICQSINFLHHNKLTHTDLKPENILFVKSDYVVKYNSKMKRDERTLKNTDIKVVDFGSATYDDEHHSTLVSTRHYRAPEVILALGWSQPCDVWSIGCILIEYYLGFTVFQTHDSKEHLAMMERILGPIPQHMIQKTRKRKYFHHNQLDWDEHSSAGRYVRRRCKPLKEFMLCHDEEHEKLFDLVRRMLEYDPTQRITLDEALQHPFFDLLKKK
various enzymes (Homo sapiens, UniProt Q96PN8), sequence (Q96PN8 whole entry): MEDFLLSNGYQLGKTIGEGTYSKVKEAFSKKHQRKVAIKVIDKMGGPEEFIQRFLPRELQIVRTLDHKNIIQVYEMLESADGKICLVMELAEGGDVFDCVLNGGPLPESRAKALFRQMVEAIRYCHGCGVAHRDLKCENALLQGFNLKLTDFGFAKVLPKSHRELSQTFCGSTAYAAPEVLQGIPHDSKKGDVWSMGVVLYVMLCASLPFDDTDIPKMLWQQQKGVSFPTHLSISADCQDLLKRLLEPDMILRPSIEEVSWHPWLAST
various enzymes (Homo sapiens, UniProt P42680), sequence (P42680 whole entry): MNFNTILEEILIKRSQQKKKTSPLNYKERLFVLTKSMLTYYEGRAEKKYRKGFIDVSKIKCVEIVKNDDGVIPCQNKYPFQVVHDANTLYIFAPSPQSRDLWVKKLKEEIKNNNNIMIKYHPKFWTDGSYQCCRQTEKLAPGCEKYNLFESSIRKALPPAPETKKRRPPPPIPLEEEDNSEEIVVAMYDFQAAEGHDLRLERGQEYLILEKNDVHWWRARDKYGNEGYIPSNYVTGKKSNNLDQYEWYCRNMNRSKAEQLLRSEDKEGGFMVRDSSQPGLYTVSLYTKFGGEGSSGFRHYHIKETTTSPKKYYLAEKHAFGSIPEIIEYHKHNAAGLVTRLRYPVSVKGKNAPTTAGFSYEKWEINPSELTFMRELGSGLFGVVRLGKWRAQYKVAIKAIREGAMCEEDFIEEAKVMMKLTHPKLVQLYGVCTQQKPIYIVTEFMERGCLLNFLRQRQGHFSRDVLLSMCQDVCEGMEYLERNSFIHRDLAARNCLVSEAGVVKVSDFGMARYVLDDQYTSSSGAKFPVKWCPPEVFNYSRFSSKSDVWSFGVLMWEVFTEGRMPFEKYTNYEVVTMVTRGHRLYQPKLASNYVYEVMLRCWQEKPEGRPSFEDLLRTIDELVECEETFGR
various enzymes (Homo sapiens, UniProt P35590), sequence (P35590 22-1138): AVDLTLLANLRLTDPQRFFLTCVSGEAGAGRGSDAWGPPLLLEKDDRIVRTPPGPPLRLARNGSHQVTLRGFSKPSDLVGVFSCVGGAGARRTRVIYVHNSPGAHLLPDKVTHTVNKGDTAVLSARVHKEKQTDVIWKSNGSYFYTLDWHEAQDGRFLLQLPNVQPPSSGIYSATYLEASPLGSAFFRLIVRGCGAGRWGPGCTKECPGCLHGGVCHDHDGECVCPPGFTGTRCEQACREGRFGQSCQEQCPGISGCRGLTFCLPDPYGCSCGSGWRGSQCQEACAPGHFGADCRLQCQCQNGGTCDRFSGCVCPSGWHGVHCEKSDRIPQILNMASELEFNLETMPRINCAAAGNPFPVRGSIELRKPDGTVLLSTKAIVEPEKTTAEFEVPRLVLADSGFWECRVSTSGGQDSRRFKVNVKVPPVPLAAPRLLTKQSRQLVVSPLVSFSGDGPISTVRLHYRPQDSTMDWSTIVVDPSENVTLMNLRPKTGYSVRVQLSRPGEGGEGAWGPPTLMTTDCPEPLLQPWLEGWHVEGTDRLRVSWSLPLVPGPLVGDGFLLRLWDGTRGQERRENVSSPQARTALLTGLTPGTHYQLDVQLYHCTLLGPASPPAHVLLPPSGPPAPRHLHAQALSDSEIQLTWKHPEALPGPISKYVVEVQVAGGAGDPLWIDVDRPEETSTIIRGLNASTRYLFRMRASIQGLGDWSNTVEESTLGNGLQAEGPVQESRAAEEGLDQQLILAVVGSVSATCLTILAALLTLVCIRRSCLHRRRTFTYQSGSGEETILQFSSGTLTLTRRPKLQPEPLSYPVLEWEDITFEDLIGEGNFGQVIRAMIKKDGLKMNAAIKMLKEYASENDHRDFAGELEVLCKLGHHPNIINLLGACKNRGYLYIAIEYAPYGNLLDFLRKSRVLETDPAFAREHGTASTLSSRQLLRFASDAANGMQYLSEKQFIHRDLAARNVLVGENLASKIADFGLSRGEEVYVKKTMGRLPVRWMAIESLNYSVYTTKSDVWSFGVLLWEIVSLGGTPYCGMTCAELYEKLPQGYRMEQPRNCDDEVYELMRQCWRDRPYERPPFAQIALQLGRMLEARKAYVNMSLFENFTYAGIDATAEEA
various enzymes (Homo sapiens, UniProt P10721, V559D), sequence (P10721 26-976 V559D): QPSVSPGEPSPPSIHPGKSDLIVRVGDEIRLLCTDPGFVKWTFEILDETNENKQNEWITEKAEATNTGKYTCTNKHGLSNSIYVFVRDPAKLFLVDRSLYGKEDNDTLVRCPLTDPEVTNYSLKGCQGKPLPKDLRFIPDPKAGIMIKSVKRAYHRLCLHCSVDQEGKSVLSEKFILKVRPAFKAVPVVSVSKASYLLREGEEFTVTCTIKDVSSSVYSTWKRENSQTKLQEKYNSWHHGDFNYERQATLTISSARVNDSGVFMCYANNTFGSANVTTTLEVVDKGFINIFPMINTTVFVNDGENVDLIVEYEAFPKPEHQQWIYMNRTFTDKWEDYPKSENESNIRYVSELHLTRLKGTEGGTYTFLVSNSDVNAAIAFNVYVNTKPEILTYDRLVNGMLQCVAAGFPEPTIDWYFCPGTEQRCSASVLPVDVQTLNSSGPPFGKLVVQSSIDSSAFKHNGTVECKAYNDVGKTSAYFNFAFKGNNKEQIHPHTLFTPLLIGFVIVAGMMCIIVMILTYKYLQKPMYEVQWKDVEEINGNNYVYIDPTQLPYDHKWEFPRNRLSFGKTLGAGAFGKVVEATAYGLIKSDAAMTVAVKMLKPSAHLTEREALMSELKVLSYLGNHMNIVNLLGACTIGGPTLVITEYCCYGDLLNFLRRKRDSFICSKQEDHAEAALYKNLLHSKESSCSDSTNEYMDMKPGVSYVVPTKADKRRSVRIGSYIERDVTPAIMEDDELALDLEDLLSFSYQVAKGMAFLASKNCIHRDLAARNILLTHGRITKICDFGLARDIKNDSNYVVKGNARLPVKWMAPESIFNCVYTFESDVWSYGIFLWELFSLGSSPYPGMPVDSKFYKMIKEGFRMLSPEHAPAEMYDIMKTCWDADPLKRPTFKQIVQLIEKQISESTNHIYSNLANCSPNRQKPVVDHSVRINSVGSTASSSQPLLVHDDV
various enzymes (Homo sapiens, UniProt Q8WU08), sequence (Q8WU08 whole entry): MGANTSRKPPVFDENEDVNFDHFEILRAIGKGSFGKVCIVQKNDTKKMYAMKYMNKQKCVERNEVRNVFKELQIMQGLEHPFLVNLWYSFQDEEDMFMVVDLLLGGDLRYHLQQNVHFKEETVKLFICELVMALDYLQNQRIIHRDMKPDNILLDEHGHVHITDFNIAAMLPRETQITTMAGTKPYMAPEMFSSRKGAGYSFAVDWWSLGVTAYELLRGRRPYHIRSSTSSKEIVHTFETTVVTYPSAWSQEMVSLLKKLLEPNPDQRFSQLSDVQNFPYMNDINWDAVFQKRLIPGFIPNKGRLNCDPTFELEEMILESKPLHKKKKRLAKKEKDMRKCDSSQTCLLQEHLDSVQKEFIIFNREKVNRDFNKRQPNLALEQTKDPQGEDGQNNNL
various enzymes (Homo sapiens, UniProt Q9HBY8), sequence (Q9HBY8 whole entry): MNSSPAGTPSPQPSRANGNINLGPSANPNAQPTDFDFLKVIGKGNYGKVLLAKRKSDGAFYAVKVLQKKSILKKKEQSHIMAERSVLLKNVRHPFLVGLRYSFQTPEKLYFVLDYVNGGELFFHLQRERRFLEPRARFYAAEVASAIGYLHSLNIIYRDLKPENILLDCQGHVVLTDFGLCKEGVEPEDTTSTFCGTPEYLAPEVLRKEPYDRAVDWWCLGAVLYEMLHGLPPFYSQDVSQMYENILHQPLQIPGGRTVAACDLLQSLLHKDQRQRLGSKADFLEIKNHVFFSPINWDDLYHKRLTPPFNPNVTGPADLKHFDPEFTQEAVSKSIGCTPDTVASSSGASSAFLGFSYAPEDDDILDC

In the case of CC(C)N1Cc2nn(C)cc2-c2cnc3[nH]cc(c3c2)-c2cn(nc2C(F)(F)F)CCCC1=O [Compound 45, (Z)-5-isopropyl-31-methyl-13-(trifluoromethyl)-11H,21H,31H-5-aza-2(3,5)-pyrrolo[2,3-b]pyridina-1(4,1),3(4,3)-dipyrazolacyclononaphan-6-one], the “Ambit profiling: RET(V804M)” value ([1]; compound 1 uM) is reported as 8.2, the “Ambit profiling: SGK3” value [2] is reported as 30 and the “Ambit profiling: YANK1” value [3] is reported as 100. For the same molecule, the “Ambit profiling: RSK1(Kin.Dom.1-N-terminal)” value [4] was 17, the “Ambit profiling: RSK1(Kin.Dom.2-C-terminal)” value [4] was 85 and the “Ambit profiling: DAPK1” value [5] was 92. For the same molecule, the “Ambit profiling: PIP5K1C” value [6] was 5.8, the “Ambit profiling: KIT(V559D)” value ([7]; compound 1 uM) was 3.2 and the “Ambit profiling: TEC” value [8] was 97. For the same molecule, the “Ambit profiling: TIE1” value [9] was 7.2, the “Ambit profiling: CDC2L2” value [10] was 100 and the “Ambit profiling: BMX” value [11] was 35. The “Ambit profiling: SIK” value [12] was 74, the “Ambit profiling: TNNI3K” value [13] was 72 and the “Ambit profiling: GAK” value [14] was 5.7. The “Ambit profiling: PIKFYVE” value [15] was 13, the “Ambit profiling: PLK1” value [16] was 93 and the “Ambit profiling: PFCDPK1(P. falciparum)” value ([17]; compound 1 uM) was 2.8. The “Ambit profiling: MYLK2” value [18] was 29, the “Ambit profiling: PIK3CD” value [19] was 92 and the “Ambit profiling: CAMK1D” value [20] was 60. The “Ambit profiling: YANK2” value [21] was 100, the “Ambit profiling: FLT3” value [22] was 0 and the “Ambit profiling: FLT3-autoinhibited” value [22] was 21. The “Ambit profiling: TSSK3” value [23] was 90, the “Ambit profiling: CLK4” value [24] was 19 and the “Ambit profiling: PLK2” value [25] was 90. For the same molecule, the “Ambit profiling: TTK” value [26] was 20, the “Ambit profiling: SGK2” value [27] was 23 and the “Ambit profiling: CTK” value [28] was 70. For the same molecule, the “Ambit profiling: WNK2” value [29] was 64, the “Ambit profiling: ACVRL1” value [30] was 36 and the “Ambit profiling: CDKL3” value [31] was 100.
COc1c2c(nn1C)CN(C(C)C)C(=O)CCCn1cc(c(C(F)(F)F)n1)-c1c[nH]c3ncc-2cc13 [Compound 50, (Z)-5-isopropyl-35-methoxy-31-methyl-13-(trifluoromethyl)-11H,21H,31H-5-aza-2(3,5)-pyrrolo[2,3-b]pyridina-1(4,1),3(4,3)-dipyrazolacyclononaphan-6-one] was tested, and the “Ambit profiling: RET(V804M)” value [1] was 6, the “Ambit profiling: SGK3” value [2] was 50 and the “Ambit profiling: YANK1” value [3] was 24. The “Ambit profiling: RSK1(Kin.Dom.1-N-terminal)” value [4] was 3.8, the “Ambit profiling: RSK1(Kin.Dom.2-C-terminal)” value [4] was 81 and the “Ambit profiling: DAPK1” value [5] was 65. The “Ambit profiling: PIP5K1C” value [6] was 32, the “Ambit profiling: KIT(V559D)” value [7] was 0.95 and the “Ambit profiling: TEC” value [8] was 32. The “Ambit profiling: TIE1” value [9] was 9.2, the “Ambit profiling: CDC2L2” value [10] was 89 and the “Ambit profiling: BMX” value [11] was 24. For the same molecule, the “Ambit profiling: SIK” value [12] was 57, the “Ambit profiling: TNNI3K” value [13] was 72 and the “Ambit profiling: GAK” value [14] was 4. The “Ambit profiling: PIKFYVE” value [15] was 11, the “Ambit profiling: PLK1” value [16] was 100 and the “Ambit profiling: PFCDPK1(P. falciparum)” value [17] was 24. The “Ambit profiling: MYLK2” value [18] was 39, the “Ambit profiling: PIK3CD” value [19] was 94 and the “Ambit profiling: CAMK1D” value [20] was 38. The “Ambit profiling: YANK2” value [21] was 45, the “Ambit profiling: FLT3” value [22] was 1.1 and the “Ambit profiling: FLT3-autoinhibited” value [22] was 6.4. For the same molecule, the “Ambit profiling: TSSK3” value [23] was 100, the “Ambit profiling: CLK4” value [24] was 17 and the “Ambit profiling: PLK2” value [25] was 95. The “Ambit profiling: TTK” value [26] was 23, the “Ambit profiling: SGK2” value [27] was 59 and the “Ambit profiling: CTK” value [28] was 53. The “Ambit profiling: WNK2” value [29] was 46, the “Ambit profiling: ACVRL1” value [30] was 67 and the “Ambit profiling: CDKL3” value [31] was 80.
